Results from US6358885B1, “Substituted phenylheterocyclic herbicides” (Mississippi State University, priority 1992, dated 2002).

Legend:
Assay in all cases: Test B preemergence/postemergence greenhouse plant response rating 0 to 10
Settings in all cases: 0 to 10 scale
wild oat = type: in vivo, Avena fatua
Excerpt: (§1) Seeds of barley (Hordeum vulgare), barnyardgrass (Echinochloa crus-galli), bedstraw (Galium aparine), blackgrass (Alopecurus myosuroides), […] (Bromus secalinus), chickweed (Stellaria media), cocklebur (Xanthium pensylvanicum), corn (Zea mays), cotton (Gossypium hirsutum), crabgrass (Digitaria spp.), giant foxtail (Setaria faberii), lambsquarters (Chenopodium album), morningglory (Ipomoea hederacea), rape (Brassica napus), rice (Oryza sativa), sorghum (Sorghum bicolor), soybean (Glycine max), sugar beet (Beta vulgaris), velvetleaf (Abutilon theophrasti), wheat (Triticum aestivum), wild buckwheat (Polygonum convolvulus), and wild oat (Avena fatua) and purple nutsedge. (Cyperus rotundus) tubers were planted and treated preemergence with test chemicals dissolved in a non-phytotoxic solvent. At the same time, these crop and weed species were also treated with postemergence applications of test chemicals. Plants ranged in height from two to eighteen cm (one to four leaf stage) for postemergence treatments. Treated plants and controls were maintained in a greenhouse for twelve to sixteen days, after which all species were compared to controls and visually evaluated. […] A dash (-) response means no test result.

cocklebur = type: in vivo, Xanthium pensylvanicum
Excerpt: as §1

lambsquarters = type: in vivo, Chenopodium album
Excerpt: as §1

wheat = type: in vivo, Triticum aestivum
Excerpt: as §1

crabgrass = type: in vivo, Digitaria spp.
Excerpt: as §1

soybean = type: in vivo, Glycine max
Excerpt: as §1

purple nutsedge = type: in vivo, Cyperus rotundus
Excerpt: as §1

morningglory = type: in vivo, Ipomoea hederacea
Excerpt: as §1

barnyardgrass = type: in vivo, Echinochloa crus-galli
Excerpt: as §1

rice = type: in vivo, Oryza sativa
Excerpt: as §1

sorghum = type: in vivo, Sorghum bicolor
Excerpt: as §1

bedstraw = type: in vivo, Galium aparine
Excerpt: as §1

corn = type: in vivo, Zea mays
Excerpt: as §1

cheatgrass = type: in vivo, Bromus secalinus
Excerpt: as §1

chickweed = type: in vivo, Stellaria media
Excerpt: as §1

sugar beet = type: in vivo, Beta vulgaris
Excerpt: as §1

blackgrass = type: in vivo, Alopecurus myosuroides
Excerpt: as §1

velvetleaf = type: in vivo, Abutilon theophrasti
Excerpt: as §1

giant foxtail = type: in vivo, Setaria faberii
Excerpt: as §1

cotton = type: in vivo, Gossypium hirsutum
Excerpt: as §1

barley = type: in vivo, Hordeum vulgare
Excerpt: as §1

rape = type: in vivo, Brassica napus
Excerpt: as §1

wild buckwheat = type: in vivo, Polygonum convolvulus
Excerpt: as §1

## C=CCOC(=O)COc1cc(-c2nn3c(c2Cl)CCCC3)c(F)cc1Cl [Compound 62]
Wild oat; POSTEMERGENCE, Rate 10 g/ha
  Plant response rating, Wild oat: 1
Wild oat; POSTEMERGENCE, Rate 50 g/ha
  Plant response rating, Wild oat: 2
Wild oat; PREEMERGENCE, Rate 50 g/ha
  Plant response rating, Wild oat: 0
cocklebur; POSTEMERGENCE, Rate 10 g/ha
  Plant response rating, Cocklebur: 5
cocklebur; POSTEMERGENCE, Rate 50 g/ha
  Plant response rating, Cocklebur: 9
cocklebur; PREEMERGENCE, Rate 10 g/ha
  Plant response rating, Cocklebur: 0
cocklebur; PREEMERGENCE, Rate 50 g/ha
  Plant response rating, Cocklebur: 0
lambsquarters; POSTEMERGENCE, Rate 10 g/ha
  Plant response rating, Lambsquarter: 8
lambsquarters; POSTEMERGENCE, Rate 50 g/ha
  Plant response rating, Lambsquarter: 9
lambsquarters; PREEMERGENCE, Rate 50 g/ha
  Plant response rating, Lambsquarter: 9
wheat; POSTEMERGENCE, Rate 10 g/ha
  Plant response rating, Wheat: 2
wheat; POSTEMERGENCE, Rate 50 g/ha
  Plant response rating, Wheat: 2
wheat; PREEMERGENCE, Rate 50 g/ha
  Plant response rating, Wheat: 2
crabgrass; POSTEMERGENCE, Rate 10 g/ha
  Plant response rating, Crabgrass: 1
crabgrass; POSTEMERGENCE, Rate 50 g/ha
  Plant response rating, Crabgrass: 2
crabgrass; PREEMERGENCE, Rate 10 g/ha
  Plant response rating, Crabgrass: 0
crabgrass; PREEMERGENCE, Rate 50 g/ha
  Plant response rating, Crabgrass: 0
soybean; POSTEMERGENCE, Rate 10 g/ha
  Plant response rating, Soybean: 2
soybean; POSTEMERGENCE, Rate 50 g/ha
  Plant response rating, Soybean: 8
soybean; PREEMERGENCE, Rate 50 g/ha
  Plant response rating, Soybean: 0
Purple nutsedge; POSTEMERGENCE, Rate 10 g/ha
  Plant response rating, Nutsedge: 0
Purple nutsedge; POSTEMERGENCE, Rate 50 g/ha
  Plant response rating, Nutsedge: 0
Purple nutsedge; PREEMERGENCE, Rate 50 g/ha
  Plant response rating, Nutsedge: 0
morningglory; POSTEMERGENCE, Rate 10 g/ha
  Plant response rating, Morningglory: 6
morningglory; POSTEMERGENCE, Rate 50 g/ha
  Plant response rating, Morningglory: 9
morningglory; PREEMERGENCE, Rate 50 g/ha
  Plant response rating, Morningglory: 0
barnyardgrass; POSTEMERGENCE, Rate 10 g/ha
  Plant response rating, Barnyardgrass: 2
barnyardgrass; POSTEMERGENCE, Rate 50 g/ha
  Plant response rating, Barnyardgrass: 3
barnyardgrass; PREEMERGENCE, Rate 10 g/ha
  Plant response rating, Barnyardgrass: 0
barnyardgrass; PREEMERGENCE, Rate 50 g/ha
  Plant response rating, Barnyardgrass: 0
rice; POSTEMERGENCE, Rate 10 g/ha
  Plant response rating, Rice: 3
rice; POSTEMERGENCE, Rate 50 g/ha
  Plant response rating, Rice: 3
rice; PREEMERGENCE, Rate 50 g/ha
  Plant response rating, Rice: 0
sorghum; POSTEMERGENCE, Rate 10 g/ha
  Plant response rating, Sorghum: 2
sorghum; POSTEMERGENCE, Rate 50 g/ha
  Plant response rating, Sorghum: 2
sorghum; PREEMERGENCE, Rate 50 g/ha
  Plant response rating, Sorghum: 0
bedstraw; POSTEMERGENCE, Rate 10 g/ha
  Plant response rating, Bedstraw: 8
bedstraw; POSTEMERGENCE, Rate 50 g/ha
  Plant response rating, Bedstraw: 9
bedstraw; PREEMERGENCE, Rate 10 g/ha
  Plant response rating, Bedstraw: 7
bedstraw; PREEMERGENCE, Rate 50 g/ha
  Plant response rating, Bedstraw: 7
corn; POSTEMERGENCE, Rate 10 g/ha
  Plant response rating, Corn: 2
corn; POSTEMERGENCE, Rate 50 g/ha
  Plant response rating, Corn: 5
corn; PREEMERGENCE, Rate 50 g/ha
  Plant response rating, Corn: 0
cheatgrass; POSTEMERGENCE, Rate 10 g/ha
  Plant response rating, Cheatgrass: 1
cheatgrass; POSTEMERGENCE, Rate 50 g/ha
  Plant response rating, Cheatgrass: 2
cheatgrass; PREEMERGENCE, Rate 10 g/ha
  Plant response rating, Cheatgrass: 0
cheatgrass; PREEMERGENCE, Rate 50 g/ha
  Plant response rating, Cheatgrass: 0
chickweed; POSTEMERGENCE, Rate 10 g/ha
  Plant response rating, Chickweed: 0
chickweed; POSTEMERGENCE, Rate 50 g/ha
  Plant response rating, Chickweed: 3
chickweed; PREEMERGENCE, Rate 50 g/ha
  Plant response rating, Chickweed: 0
Sugar beet; POSTEMERGENCE, Rate 10 g/ha
  Plant response rating, Sugar beet: 10
Sugar beet; POSTEMERGENCE, Rate 50 g/ha
  Plant response rating, Sugar beet: 10
Sugar beet; PREEMERGENCE, Rate 50 g/ha
  Plant response rating, Sugar beet: 10
blackgrass; POSTEMERGENCE, Rate 10 g/ha
  Plant response rating, Blackgrass: 1
blackgrass; POSTEMERGENCE, Rate 50 g/ha
  Plant response rating, Blackgrass: 2
blackgrass; PREEMERGENCE, Rate 10 g/ha
  Plant response rating, Blackgrass: 0
blackgrass; PREEMERGENCE, Rate 50 g/ha
  Plant response rating, Blackgrass: 0
velvetleaf; POSTEMERGENCE, Rate 10 g/ha
  Plant response rating, Velvetleaf: 7
velvetleaf; POSTEMERGENCE, Rate 50 g/ha
  Plant response rating, Velvetleaf: 10
velvetleaf; PREEMERGENCE, Rate 50 g/ha
  Plant response rating, Velvetleaf: 2
Giant foxtail; POSTEMERGENCE, Rate 10 g/ha
  Plant response rating, Giant foxtail: 1
Giant foxtail; POSTEMERGENCE, Rate 50 g/ha
  Plant response rating, Giant foxtail: 3
Giant foxtail; PREEMERGENCE, Rate 10 g/ha
  Plant response rating, Giant foxtail: 0
Giant foxtail; PREEMERGENCE, Rate 50 g/ha
  Plant response rating, Giant foxtail: 0
cotton; POSTEMERGENCE, Rate 10 g/ha
  Plant response rating, Cotton: 10
cotton; POSTEMERGENCE, Rate 50 g/ha
  Plant response rating, Cotton: 10
cotton; PREEMERGENCE, Rate 10 g/ha
  Plant response rating, Cotton: 0
cotton; PREEMERGENCE, Rate 50 g/ha
  Plant response rating, Cotton: 0
barley; POSTEMERGENCE, Rate 10 g/ha
  Plant response rating, Barley: 1
barley; POSTEMERGENCE, Rate 50 g/ha
  Plant response rating, Barley: 1
barley; PREEMERGENCE, Rate 10 g/ha
  Plant response rating, Barley: 0
barley; PREEMERGENCE, Rate 50 g/ha
  Plant response rating, Barley: 0
rape; POSTEMERGENCE, Rate 10 g/ha
  Plant response rating, Rape: 1
rape; POSTEMERGENCE, Rate 50 g/ha
  Plant response rating, Rape: 6
rape; PREEMERGENCE, Rate 50 g/ha
  Plant response rating, Rape: 0
Wild buckwheat; POSTEMERGENCE, Rate 10 g/ha
  Plant response rating, Wild buckwheat: 2
Wild buckwheat; POSTEMERGENCE, Rate 50 g/ha
  Plant response rating, Wild buckwheat: 10
Wild buckwheat; PREEMERGENCE, Rate 50 g/ha
  Plant response rating, Wild buckwheat: 0
